Assay results from patent US7294509B2, “Pre-adipose cell lines” (Nestec S.A., priority 2000, dated 2007).

Key:
Format in all cases: cell-based, human
Chub-S7 cells [1] = experiment: Adipocyte marker gene expression by real-time RT-PCR during Chub-S7 cell differentiation; details: for LPL mRNA fold-increase / aP2 mRNA fold-increase: day 17 as compared to day 0, 1 μM Dex alone or with 1 μM BRL49653 from day 3
Description: Adipocyte differentiation of Chub-S7 cells was tested under serum-free culture conditions. To promote pre-adipocyte differentiation, confluent cells were incubated with a basal medium (see Material and Methods) supplemented with 500 μM IBMX and 1 μM Dex for the first 3 days, and 1 μM of a PPARγ agonist (BRL49653) and 1 μM Dex from day 3 to 17. This condition was compared to the basal medium alone or supplemented with Dex plus IBMX from day 0 to 3 and Dex alone from day 3 to 17. To determine whether Chub-S7 cells were able to differentiate, the expression of adipocyte markers was assessed, by real-time RT-PCR, at different time points during cellular maturation. These markers included i) transcriptional factors involved in adipogenesis such as peroxisome proliferator-activated receptor γ (PPARγ) and CAAT/enhancer binding protein α (C/EBPα), ii) genes involved in lipid metabolism such as lipoprotein lipase (LPL) and adipocyte fatty acid binding protein (aP2), and finally iii) adipocyte secreted factors such as adipsin and leptin.
Chub-S7 cells were cultured from day 0 to 17 in the presence of the basal medium as defined in Material and Methods (m), or in the basal medium with 1 μM Dex plus 500 μM IBMX from day 0 to 3 and dexamethasone from day 3 to 17 (●) or supplemented with 1 μM BRL49653 (▪). The arrow indicates the day from which BRL49653 was added to the medium. Relative gene expression was quantified by real-time RT-PCR. Data are the means±SEM of values obtained at least in four separate experiments. […] Top panels show representative RT-PCRs performed at a number of cycle defined according to the linear amplification of the genes (see Material and Methods).
Cells were grown in a mixture of DMEM/F12 media supplemented with 10% FBS, 2 mM glutamine, 100 U/ml penicillin/streptamycin until confluency. For differentiation, cells were washed with PBS and cultured with a serum-free medium consisting of a mixture of DMEM/F12 media supplemented with 15 mM NaHCO3, 17 μM D-panthotenic acid, 15 mM Hepes, 33 μM biotin, 10 μg/ml transferrin, 1 nM triiodothyronin, 850 nM insulin and 500 μg/ml fetuin. This medium, referred to “basal medium” was supplemented with 1 μM dexamethasone (Dex) and 500 μM IBMX from day 0 to 3. Dex was maintained alone or with 1 μM BRL49653 from day 3 to 17 in order to promote differentiation. As stated in Results, oleic acid (OA) complexed with bovine serum albumin (BSA; ratio OA-to-BSA: 5: 1) was added to the medium containing BRL49653 from day 10 to 17. Lipid accumulation in differentiated cells was visualized by Oil red O staining as previously described (22). All the experiments on Chub-S7 cell characterization were performed between passages 18 and 32 (69 to 122 population doublings).
RNAs from Chub-S7 cells cultured from day 0 to 17 were extracted using the NucleoSpin® Total RNA Purification System (Macherey-Nagel, Oensingen Switzerland). Reverse transcription was performed with an input of 10 μg of total RNA using the 1st strand cDNA synthesis kit for RT-PCR (AMV; Roche Biomedical, Basel, Switzerland) with oligo d(T)15 as primer. Real-time reverse transcription-polymerase chain reaction analyses were performed in a fluorescent temperature cycler (GeneAmp® PCR 5700 Sequence Detection System; Applied Biosystem) according to the recommendations of the manufacturer. Briefly, after initial denaturation at 50° C. for 2 min and 95° C. for 10 min, reactions were cycled 40 times using the following parameters for all genes studied: 95° C. for 15s, primer annealing and extension at 60° C. for 1 min. SYBR Green I fluorescence was detected at the end of each cycle to monitor the amount of PCR product formed during that cycle. Primers used for the amplification of cDNAs of interest were synthesized by Mycrosynth (Windisch, Switzerland).
Cycle to cycle fluorescence emission was monitored and quantified using the GenAmp software provided by Applied Biosystem. […]

Chub-S7 cells [2] = experiment: Lipolysis (glycerol release) in differentiated Chub-S7 cells; details: 1 μM isoproterenol, 1 h; day 17; cells differentiated with BRL49653
Description: Lipolytic capacity of differentiated cells was assessed by measuring glycerol release, after stimulation or not for 1 h with 1 μM isoproterenol (Iso), a non-specific β-adrenergic agonist. Cells were differentiated in the presence of BRL49653 alone.
A. Chub-S7 cells were differentiated in the presence of 1 μM Dex plus 500 μM IBMX from day 0 to 3 and dexamethasone plus 1 μM BRL49653 from day 3 to 17. Glycerol released in the medium was measured in the presence or in the absence of 1 μM isoproterenol. Data are the means of values obtained at least in four separate experiments. […] B. Chub-S7 cells were cultured from day 0 to 17 in the presence of the basal medium (m), or in the basal medium with 1 μM Dex plus 500 μM IBMX from day 0 to 3 and Dex from day3 to 17 (●) or supplemented with 1 μM BRL49653 (▪). Data are the means±SEM of values obtained at least in four separate experiments.
(iv) Glycerol-3-phosphate dehydrogenase activity and lipolysis measurements Glycerol-3-phosphate dehydrogenase (GPDH) activity measured at different times during the differentiation process of Chub-S7 cells was determined using the enzymatic assay previously described (23). Lipolysis was determined at day 17 after confluency. […] Glycerol released in the medium was measured using the glycerokinase enzymatic radiometric assay described by Bradley and Kaslow (24).

Chub-S7 cells [3] = experiment: Triglyceride accumulation in differentiated Chub-S7 cells (Oil red O staining); details: 100 μM OA complexed with BSA, day 10 to 17, in differentiation medium containing BRL49653
Description: To study the ability of differentiated Chub-S7 cells to accumulate intracellular lipids, cells cultured for 17 days in the absence or in the presence of BRL49653 were fixed and stained with Oil-red O. Almost all the differentiated cells were able to accumulate at least one single lipid droplet and few of them presented large multilocular droplets (FIG. 10B).
Chub-S7 cells were grown in the presence of the basal medium with 1 μM dexamethasone plus 500 μM IBMX from day 0 to 3 and Dex from day 3 to 17 or supplemented with 1 μM BRL49653 alone or in the presence of 100 μM OA from day 10 to 17. At day 17, cells were fixed and triglycerides were visualized using the oil-red O staining. A: Staining of culture wells containing Chub-S7 cells differentiated under the conditions described above. B: Morphology of Chub-S7 cells differentiated with dexamethasone and BRL49653 or in the same medium supplemented with oleate (Magnitude 400×). Data are representative of at least 3 independent experiments.
Cells were grown in a mixture of DMEM/F12 media supplemented with 10% FBS, 2 mM glutamine, 100 U/ml penicillin/streptamycin until confluency. […]

SMILES	LPL mRNA fold-increase (Chub-S7 cells [1])	aP2 mRNA fold-increase (Chub-S7 cells [1])	further results
CN(CCOc1ccc(CC2SC(=O)NC2=O)cc1)c1ccccn1 (centres unmarked) [BRL49653]	308 fold-increase	8372 fold-increase	leptin mRNA, higher in presence of BRL49653 compared to Dex alone (Chub-S7 cells [1]; day 17, 1 μM BRL49653): 2 fold
CC(C)NCC(O)c1ccc(O)c(O)c1 (centres unmarked) [Iso, isoproterenol]	–	–	increase in lipolysis (glycerol release) (Chub-S7 cells [2]): 40.5%
CCCCCCCC/C=C\CCCCCCCC(=O)O [OA, oleic acid]	–	–	expression of LPL, C/EBPα, aP2, leptin and adipsin induced by BRL49653 (Chub-S7 cells [1]; 100 μM OA day 10 to 17, data not shown): did not affect; triglyceride content (Chub-S7 cells [3]): dramatic increase
C[C@@H]1C[C@H]2[C@@H]3CCC4=CC(=O)C=C[C@]4(C)[C@@]3(F)[C@@H](O)C[C@]2(C)[C@@]1(O)C(=O)CO [Dex, Dexamethasone]	16 fold-increase	8 fold-increase	–
